Laboratory results from BindingDB's records for doi:10.1016/j.bmcl.2005.03.003 (Gsk, 2005).

Biological target: T1, Phenylalanine--tRNA ligase alpha/beta subunit (Staphylococcus aureus, UniProt P68849+Q9AGR3)
T1 sequence (P68849 whole entry): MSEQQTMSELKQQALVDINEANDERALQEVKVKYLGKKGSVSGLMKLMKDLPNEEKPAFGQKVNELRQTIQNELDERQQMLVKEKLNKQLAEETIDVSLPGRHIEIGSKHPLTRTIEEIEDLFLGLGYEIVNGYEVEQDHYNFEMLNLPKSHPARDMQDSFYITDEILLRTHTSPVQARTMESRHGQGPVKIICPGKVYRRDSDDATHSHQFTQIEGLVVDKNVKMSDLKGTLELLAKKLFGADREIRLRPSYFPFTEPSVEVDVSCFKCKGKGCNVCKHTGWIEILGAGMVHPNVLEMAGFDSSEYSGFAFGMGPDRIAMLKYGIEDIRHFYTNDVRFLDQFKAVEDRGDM
T1 sequence (Q9AGR3 whole entry): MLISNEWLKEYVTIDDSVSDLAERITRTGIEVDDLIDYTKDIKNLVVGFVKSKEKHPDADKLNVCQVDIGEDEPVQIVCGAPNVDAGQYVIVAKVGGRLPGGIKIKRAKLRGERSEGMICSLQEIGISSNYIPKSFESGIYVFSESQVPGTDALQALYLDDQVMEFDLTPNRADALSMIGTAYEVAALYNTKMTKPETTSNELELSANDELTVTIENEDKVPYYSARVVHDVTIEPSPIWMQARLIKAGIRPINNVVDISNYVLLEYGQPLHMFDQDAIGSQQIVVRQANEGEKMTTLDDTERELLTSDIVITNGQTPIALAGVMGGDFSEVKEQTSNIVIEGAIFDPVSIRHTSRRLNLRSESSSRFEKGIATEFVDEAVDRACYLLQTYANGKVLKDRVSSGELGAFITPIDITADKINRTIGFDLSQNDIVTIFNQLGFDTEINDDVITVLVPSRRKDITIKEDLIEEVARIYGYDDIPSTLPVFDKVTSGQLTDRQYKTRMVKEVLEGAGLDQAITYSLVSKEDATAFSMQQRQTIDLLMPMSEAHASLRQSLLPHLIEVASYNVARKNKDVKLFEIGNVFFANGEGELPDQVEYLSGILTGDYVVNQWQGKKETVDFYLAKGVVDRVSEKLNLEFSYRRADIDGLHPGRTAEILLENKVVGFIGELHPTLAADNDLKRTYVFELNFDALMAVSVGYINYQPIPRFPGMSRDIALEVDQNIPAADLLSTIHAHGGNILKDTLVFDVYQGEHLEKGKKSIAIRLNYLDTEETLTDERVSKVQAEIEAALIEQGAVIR
Test: Homogeneous Enzyme Assay with SPA Beads
Procedure: The reactions were performed in […] 384-well Packard Optiplates. After 10 min of incubation, the reaction was stopped by addition of a continuously shaken suspension of YSi SPA beads at pH 2. Under acidic conditions, SPA beads bind tRNA aggregates, while radiolabeled amino acid substrate remains in solution. The beads were allowed to settle for at least 45 min and the plates were counted in a microplate scintillation counter TopCount (Packard).

IC50 (pH 7.9, 37 °C) | IC50 (pH 2) | SMILES
> 10000 nM | – | OC(CNCc1ccccc1N1CCOCC1)c1cccc(C(F)(F)F)c1 (configuration not stated) [2-({[2-(morpholin-4-yl)phenyl]methyl}amino)-1-[3-(trifluoromethyl)phenyl]ethan-1-ol]
– | 43 nM | O=C(O)CCCOc1ccccc1CNCC(O)c1cc(Br)cs1 (configuration not stated) [4-[2-({[2-(4-bromothiophen-2-yl)-2-hydroxyethyl]amino}methyl)phenoxy]butanoic acid]
